According to patent US20220054524A1, “NEW CONJUGATED NUCLEIC ACID MOLECULES AND THEIR USES” (ONXEO, priority 2018, published 2022):

Legend:
Type in all cases: cell-based
[1] = system: homologous recombination repair pathway; assay: Homologous recombination pathway activity (Rad51 foci); conditions: MDA-MB-231, olaparib 5 μM alone, 48 h
Description: (§1) Cell cultures were performed with the triple negative breast cancer cell line MDA-MB-231. Cells were grown in complete L15 Leibovitz medium and maintained at 37° C. in a humidified atmosphere at 0% Co2.
For immunostaining, cells are seeded on cover slips (Menzel, Braunschweig, Germany) at a concentration of 5×10^5 cells and incubated at 37° C. during 1 day. Cells are then treated with olaparib (5 μM)+/−OX401 (5 μM). 48 h after treatment, cells are fixed for 20 min in 4% paraformaldehyde/Phosphate-Buffered Saline (PBS 1×), permeabilized in 0.5% Triton X-100 for 10 min, blocked with 2% bovine serum albumin/PBS 1× and incubated with primary antibody for 1 h at 4° C. All secondary antibodies were used at a dilution of 1/200 for 45 min at Room Temperature (RT), and DNA was stained with 4′, 6-diamidino-2-phenylindole (DAPI). The following antibodies were used: primary monoclonal mouse anti-phospho-H2AX (Millipore, Guyancourt, France), anti-Rad51 rabbit antibody (Merk Millipore, Darmstadt, Allemagne), secondary goat anti-mouse IgG conjugated with Alexa-633 (Molecular Probes, Eugene, Oreg., USA) and secondary goat anti-rabbit IgG conjugated with Alexa-488 (Molecular Probes, Eugene, Oreg., USA).

MDA-MB-231 cells = assay: Drug-induced DNA damage (γH2AX) by flow cytometry and immunofluorescence; conditions: MDA-MB-231, 5 μM, 48 h
Description: as §1
For immunostaining, cells are seeded on cover slips (Menzel, Braunschweig, Germany) at a concentration of 5×10^5 cells and incubated at 37° C. during 1 day. Cells are then treated with olaparib (5 μM)+/−OX401 (5 μM). 48 h after treatment, cells are fixed for 20 min in 4% paraformaldehyde/Phosphate-Buffered Saline (PBS 1×), permeabilized in 0.5% Triton X-100 for 10 min, blocked with 2% bovine serum albumin/PBS 1× and incubated with primary antibody for 1 h at 4° C. All secondary antibodies were used at a dilution of 1/200 for 45 min at Room Temperature (RT), and DNA was stained with 4′, 6-diamidino-2-phenylindole (DAPI). […]
Cells were treated with OX401 (5 μM) or Olaparib (5 μM) for 48 hours and then fixed and permeabilized with cold (−20° C.) 70% ethanol for at least 2 hours. […] Fluorescence intensities were determined with a Guava EasyCyte cytometer (Luminex). Data were analyzed using FlowJo software (Tree Star, Calif.).

U937 parental cells = assay: XTT survival, U937 parental cells; conditions: Homo sapiens, U-937, 96 h, 4 days
Description: (§2) Cell cultures were performed with the lymphoma cell line U937. Cells were grown in complete RPMI medium supplemented with 10% FBS and 1% Penicillin/Streptomycin and maintained at 37° C. in a humidified atmosphere at 5% CO2. This cell line was chosen according to its high sensitivity to both OX401 and talazoparib. To assess the acquired resistances irreversibility, U937 parental or resistant cells were seeded in 96 well-plates (2.10^4 cells/well) and treated with increasing concentrations of talazoparib for 4 days. Following drug exposure, cell survival was measured using the XTT assay (Sigma Aldrich). Briefly, the XTT solution was added directly to each well containing cell culture and the cells incubated for 5 hours at 37° C. before reading the absorbance at 490 nm and 690 nm using a microplate reader (BMG Fluostar, Galaxy). Cell survival was calculated as the ratio of living treated cells to living mock-treated cells. The IC50 (which represents the dose at which 50% of the cells are viable) was calculated by a non-linear regression model using GraphPad Prism software (version 5.04) by plotting the percentage viability against the Log of the drug concentration on each cell line.

U937 cells = assay: Selection of acquired resistance by repeated treatment cycles
Description: Cell cultures were performed with the lymphoma cell line U937. Cells were grown in complete RPMI medium supplemented with 10% FBS and 1% Penicillin/Streptomycin and maintained at 37° C. in a humidified atmosphere at 5% CO2. This cell line was chosen according to its high sensitivity to both OX401 and talazoparib. For repeated cycles of the treatment to select resistance, U937 cells were seeded at appropriate densities (2.10^5 cells/mL) and incubated 24 h at 37° C. before addition of the drug at doses corresponding to 10-20% survival compared to non-treated cells. Resistances were selected under 2 μM talazoparib or 1.5 μM OX401. Cells were harvested on day 4 after treatment, washed, and counted after staining with 0.4% trypan blue (Eve™ counting slides, NanoEnTek). After counting, cells were seeded in appropriate culture plates, and allowed to recover (drug free period) for 3 to 7 days. Another cycle of treatment/recovery was then started for up to 4 cycles.

[2] = system: Ta11, Ta12 and Ta13 resistant populations; assay: XTT survival, talazoparib-resistant U937 populations; conditions: Homo sapiens, U-937, 96 h, 4 days
Description: as §2

SMILES	γH2AX and Rad51 foci [1]	γH2AX DSB biomarker (double-strand breaks accumulation) (MDA-MB-231 cells)	IC50 (U937 parental cells)	Cell survival after the first cycle (U937 cells; U937, talazoparib 2 μM)	Cell growth during drug-free amplification periods (U937 cells; U937, talazoparib 2 μM or OX401 1.5 μM, cycles of treatment)	Cell survival after the forth cycle of treatment (U937 cells; U937, talazoparib 2 μM, 33 days after treatment start)	IC50 [2]
O=C(c1cc(Cc2n[nH]c(=O)c3ccccc23)ccc1F)N1CCN(C(=O)C2CC2)CC1 [olaparib]	accumulation of γH2AX Foci that co-localize with Rad51 foci	high phosphorylation of histone H2AX	–	–	–	–	–
Cn1ncnc1[C@H]1c2n[nH]c(=O)c3cc(F)cc(c23)N[C@@H]1c1ccc(F)cc1 [talazoparib]	–	–	2000 nM	10%	recovered	more than 50%	> 4000 nM
